Each block holds one molecule with its values, some of them ahead of it.
How the values were obtained:
[1] = (§1) Inhibitory activity against Melanin-concentrating hormone receptor 1; design: species or system Homo sapiens
[2] = species on record: Homo sapiens; test: Selectivity ratio for MCH-1R versus 5-HT2B receptor
[3] = molecular target: T1, Melanin-concentrating hormone receptor 1 (Homo sapiens, UniProt Q99705); test: Tested for MCH-1 induced [Ca2+] release from CHO cells transfected with human MCH-1R; format: cell-based
[4] = molecular target: T2, 5-hydroxytryptamine receptor 2C (Homo sapiens) (UniProt P28335); test: Inhibitory activity against human 5-HT2C receptor at 1 uM concentration
T2 sequence (whole entry): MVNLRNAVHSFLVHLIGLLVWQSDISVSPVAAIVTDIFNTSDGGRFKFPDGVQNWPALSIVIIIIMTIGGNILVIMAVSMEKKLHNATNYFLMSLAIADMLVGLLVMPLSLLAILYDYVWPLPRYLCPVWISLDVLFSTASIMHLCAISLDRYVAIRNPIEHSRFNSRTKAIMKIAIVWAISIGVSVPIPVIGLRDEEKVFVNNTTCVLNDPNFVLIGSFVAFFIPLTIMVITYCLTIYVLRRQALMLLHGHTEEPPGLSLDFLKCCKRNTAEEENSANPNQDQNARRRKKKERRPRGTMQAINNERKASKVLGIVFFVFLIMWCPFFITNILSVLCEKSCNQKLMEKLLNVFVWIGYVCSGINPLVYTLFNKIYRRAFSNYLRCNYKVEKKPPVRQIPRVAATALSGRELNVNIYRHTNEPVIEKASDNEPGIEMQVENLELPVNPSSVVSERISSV

[5] = molecular target: T3, 5-hydroxytryptamine receptor 2B (Homo sapiens, UniProt P41595); test: Inhibitory activity against human 5-HT2B receptor at 1 uM concentration
[6] = molecular target: T4, Alpha-1A adrenergic receptor (Homo sapiens) (UniProt P35348); test: Inhibitory activity against human adrenergic alpha-1A receptor at 1 uM concentration
T4 sequence (whole entry): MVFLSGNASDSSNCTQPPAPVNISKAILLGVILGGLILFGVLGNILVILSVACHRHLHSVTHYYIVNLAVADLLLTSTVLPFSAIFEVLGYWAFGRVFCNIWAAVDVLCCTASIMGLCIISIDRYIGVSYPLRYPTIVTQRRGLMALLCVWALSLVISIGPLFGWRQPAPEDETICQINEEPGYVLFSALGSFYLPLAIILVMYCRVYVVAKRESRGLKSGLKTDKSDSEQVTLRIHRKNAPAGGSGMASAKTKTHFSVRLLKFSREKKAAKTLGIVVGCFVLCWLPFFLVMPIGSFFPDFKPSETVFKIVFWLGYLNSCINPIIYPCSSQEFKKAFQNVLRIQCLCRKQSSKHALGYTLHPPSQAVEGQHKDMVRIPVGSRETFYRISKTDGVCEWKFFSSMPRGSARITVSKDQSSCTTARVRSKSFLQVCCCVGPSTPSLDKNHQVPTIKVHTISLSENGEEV

[7] = molecular target: T5, 5-hydroxytryptamine receptor 2A (Homo sapiens, UniProt P28223); test: Inhibitory activity against human 5-HT2A receptor at 1 uM concentration
[8] = molecular target: D(2) dopamine receptor (Homo sapiens) (UniProt P14416); test: Inhibitory activity against human D2 receptor at 1 uM concentration
[9] = molecular target: T1, Melanin-concentrating hormone receptor 1; test: as §1; settings: concentration not given here
[10] = molecular target: T1, Melanin-concentrating hormone receptor 1; test: Inhibitory activity against Melanin-concentrating hormone receptor 1 at 1 uM
[11] = molecular target: T3, 5-hydroxytryptamine receptor 2B; test: Inhibitory activity against human 5-HT2B receptor
[12] = molecular target: T4, Alpha-1A adrenergic receptor (Homo sapiens); test: Inhibitory activity against human adrenergic alpha-1A receptor at 10 uM
[13] = molecular target: T6, 5-hydroxytryptamine receptor 2C (Homo sapiens, UniProt P28335); test: Inhibitory activity against human 5-HT2C receptor
T6 sequence (P28335 whole entry): T2 sequence (whole entry)

[14] = molecular target: D(2) dopamine receptor (Homo sapiens) (UniProt P14416); test: Inhibitory activity against human D2 receptor at 10 uM
[15] = molecular target: T5, 5-hydroxytryptamine receptor 2A; test: Inhibitory activity against human 5-HT2A receptor
[16] = molecular target: T4, Alpha-1A adrenergic receptor (Homo sapiens); test: Inhibitory activity against human adrenergic alpha-1A receptor at 10 uM concentration
[17] = molecular target: D(2) dopamine receptor (Homo sapiens) (UniProt P14416); test: Inhibitory activity against human D2 receptor at 10 uM concentration

Chain of D(2) dopamine receptor (Homo sapiens) (P14416 whole entry): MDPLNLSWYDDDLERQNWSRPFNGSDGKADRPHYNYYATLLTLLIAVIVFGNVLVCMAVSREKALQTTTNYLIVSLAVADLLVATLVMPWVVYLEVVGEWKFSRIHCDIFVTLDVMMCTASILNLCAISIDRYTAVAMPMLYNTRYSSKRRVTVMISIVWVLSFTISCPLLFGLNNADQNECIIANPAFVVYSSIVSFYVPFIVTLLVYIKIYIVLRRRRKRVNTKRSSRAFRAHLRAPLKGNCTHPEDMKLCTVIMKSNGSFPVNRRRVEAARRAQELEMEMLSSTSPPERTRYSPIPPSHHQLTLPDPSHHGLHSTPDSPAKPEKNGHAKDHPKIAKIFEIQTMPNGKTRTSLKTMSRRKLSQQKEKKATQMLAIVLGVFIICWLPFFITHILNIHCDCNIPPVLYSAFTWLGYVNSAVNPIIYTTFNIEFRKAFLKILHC
T1 sequence (Q99705 whole entry): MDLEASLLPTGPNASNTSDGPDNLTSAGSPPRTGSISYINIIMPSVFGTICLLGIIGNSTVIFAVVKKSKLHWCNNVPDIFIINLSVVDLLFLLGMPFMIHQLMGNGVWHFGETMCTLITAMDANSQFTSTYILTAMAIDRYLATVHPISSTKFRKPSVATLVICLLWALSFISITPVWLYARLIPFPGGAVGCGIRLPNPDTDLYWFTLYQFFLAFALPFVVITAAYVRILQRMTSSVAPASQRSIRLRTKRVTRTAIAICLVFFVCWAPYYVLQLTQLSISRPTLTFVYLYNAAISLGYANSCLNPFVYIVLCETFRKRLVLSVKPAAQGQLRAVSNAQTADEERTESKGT
T5 sequence (P28223 whole entry): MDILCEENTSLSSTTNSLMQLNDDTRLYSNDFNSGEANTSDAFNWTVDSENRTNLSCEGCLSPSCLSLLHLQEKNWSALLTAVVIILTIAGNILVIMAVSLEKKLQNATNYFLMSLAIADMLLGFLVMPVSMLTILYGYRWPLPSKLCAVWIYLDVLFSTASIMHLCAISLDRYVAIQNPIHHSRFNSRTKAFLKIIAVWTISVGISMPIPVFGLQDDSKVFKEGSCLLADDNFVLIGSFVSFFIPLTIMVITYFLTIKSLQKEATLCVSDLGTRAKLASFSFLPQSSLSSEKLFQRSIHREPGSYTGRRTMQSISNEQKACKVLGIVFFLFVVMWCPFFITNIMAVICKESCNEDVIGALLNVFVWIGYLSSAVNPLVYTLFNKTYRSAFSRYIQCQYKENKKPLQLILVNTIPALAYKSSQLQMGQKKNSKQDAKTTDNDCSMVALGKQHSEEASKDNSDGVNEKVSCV
T3 sequence (P41595 whole entry): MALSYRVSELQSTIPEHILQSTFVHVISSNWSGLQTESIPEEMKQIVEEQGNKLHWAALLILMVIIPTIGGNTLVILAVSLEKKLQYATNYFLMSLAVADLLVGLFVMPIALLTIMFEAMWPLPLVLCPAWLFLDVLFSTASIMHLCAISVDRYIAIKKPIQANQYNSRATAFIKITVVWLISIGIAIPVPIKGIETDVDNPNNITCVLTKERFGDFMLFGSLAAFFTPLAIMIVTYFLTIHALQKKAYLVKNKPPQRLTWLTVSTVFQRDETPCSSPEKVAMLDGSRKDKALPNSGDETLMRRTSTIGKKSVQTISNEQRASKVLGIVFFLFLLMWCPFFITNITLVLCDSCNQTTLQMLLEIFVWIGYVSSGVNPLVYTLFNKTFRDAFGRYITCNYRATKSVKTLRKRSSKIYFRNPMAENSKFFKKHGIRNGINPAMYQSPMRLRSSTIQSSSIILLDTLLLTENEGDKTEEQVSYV

IC50 [1]: 152 nM
SMILES: COc1ccc(OCC(=O)Nc2ccc3nc(N4CCN(C)CC4)cc(C)c3c2)cc1

IC50 [1]: 470 nM
SMILES: Cc1cc(N2CCN(C)CC2)nc2ccc(NC(=O)COc3ccccc3Cl)cc12

Ratio [2]: > 11 | IC50 [3]: 124 nM | inhibition [4]: 27% | inhibition [5]: 19% | inhibition [6]: 5% | inhibition [7]: 27% | IC50 [1]: 91 nM | inhibition [8]: 43%
SMILES: Cc1cc(N2CCOCC2)nc2ccc(NC(=O)COc3ccc(C(F)(F)F)cc3)cc12

inhibition [10]: 2%
SMILES: Cc1cc(N2CCN(C)CC2)nc2ccc(NC(=O)COc3ccccc3)cc12

IC50 [1]: 80 nM
SMILES: Cc1ccc(OCC(=O)Nc2ccc3nc(N4CCN(C)CC4)cc(C)c3c2)cc1

IC50 [1]: 38 nM
SMILES: Cc1cc(NC2CCCC2)nc2ccc(NC(=O)COc3ccc(C(F)(F)F)cc3)cc12

Ratio [2]: 36 | inhibition [4]: 18% | inhibition [6]: 24% | inhibition [7]: 18% | IC50 [1]: 11 nM | IC50 [11]: 400 nM | inhibition [8]: 2%
SMILES: Cc1cc(NC(C)C)nc2ccc(NC(=O)COc3ccc(C(F)(F)F)cc3)cc12

IC50 [1]: 226 nM
SMILES: Cc1cc(N2CCCCC2)nc2ccc(NC(=O)COc3ccc(C(F)(F)F)cc3)cc12

inhibition [10]: 40%
SMILES: Cc1cc(N(C)Cc2ccccc2)nc2ccc(NC(=O)COc3ccc(C(F)(F)F)cc3)cc12

inhibition [10]: 38%
SMILES: Cc1cc(N2CCN(C)CC2)nc2ccc(NC(=O)CSCc3ccc(Cl)cc3)cc12

IC50 [1]: 300 nM
SMILES: Cc1cc(N2CCN(C)CC2)nc2ccc(NC(=O)CCc3ccc(Cl)cc3)cc12

Ratio [2]: 32 | IC50 [3]: 63 nM | inhibition [4]: 39% | inhibition [16]: 85% | inhibition [17]: 41% | inhibition [7]: 27% | IC50 [1]: 14 nM | IC50 [11]: 442 nM
SMILES: Cc1cc(N2CCN(C)CC2)nc2ccc(NC(=O)COc3ccc(C(F)(F)F)cc3)cc12

The remaining lines, values behind:

SMILES: Cc1cc(N2CCN(C)CC2)nc2ccc(NC(=O)COc3ccc(C#N)cc3)cc12
IC50 [1]: 370 nM

SMILES: Cc1cc(N(C)CCN(C)C)nc2ccc(NC(=O)COc3ccc(C(F)(F)F)cc3)cc12
IC50 [1]: 22 nM

SMILES: Cc1cc(N2CCCC2)nc2ccc(NC(=O)COc3ccc(C(F)(F)F)cc3)cc12
Ratio [2]: > 200 | IC50 [3]: 10 nM | inhibition [4]: 7% | inhibition [6]: 10% | inhibition [7]: 11% | IC50 [1]: 15 nM | inhibition [8]: 7%

SMILES: Cc1ccccc1OCC(=O)Nc1ccc2nc(N3CCN(C)CC3)cc(C)c2c1
IC50 [1]: 1050 nM

SMILES: Cc1cc(N2CCN(C)CC2)nc2ccc(NC(=O)COc3cccc(Cl)c3)cc12
inhibition [9]: 19%

SMILES: COc1ccccc1OCC(=O)Nc1ccc2nc(N3CCN(C)CC3)cc(C)c2c1
inhibition [9]: 0%

SMILES: COc1cccc(OCC(=O)Nc2ccc3nc(N4CCN(C)CC4)cc(C)c3c2)c1
inhibition [10]: 9%

SMILES: Cc1cc(N2CCN(C)CC2)nc2ccc(NC(=O)COc3ccc(F)cc3)cc12
IC50 [1]: 1680 nM

SMILES: Cc1cc(N(C)C)nc2ccc(NC(=O)COc3ccc(C(F)(F)F)cc3)cc12
IC50 [1]: 174 nM

SMILES: Cc1cc(N2CCN(C)CC2)nc2ccc(NC(=O)COc3ccc(OC(F)(F)F)cc3)cc12
IC50 [1]: 36 nM

SMILES: Cc1cc(N2CCN(C)CC2)nc2ccc(NC(=O)COc3ccc(Cl)cc3)cc12
inhibition [12]: 84% | IC50 [13]: 970 nM | inhibition [14]: 35% | IC50 [1]: 55 nM | IC50 [15]: 2180 nM | IC50 [11]: 349 nM

SMILES: Cc1cc(N2CCN(C)CC2)nc2ccc(NC(=O)COCc3ccc(Cl)cc3)cc12
inhibition [10]: 19%
